# Test results as given in PubChem BioAssay AID2060901 (Molecular Pharmacology Branch, DTP, NCI, 2025).
# Tested on: 422866-222-R5-J1-PDC complex spheroids viability
# Experiment: Anticancer human tumor 422866-222-R5-J1-PDC patient-derived pancreatic adenocarcinoma cell line growth inhibition [RAS]
# Conditions: for IC50: curve of first compound; for viability, T/C: stronger effect = lower value
# Source text: RAS pathway inhibitors in Combinations in Complex Spheroids
# A high-throughput screen of multi-cell type tumor spheroids was designed to identify active combinations of RAS pathway inhibitors and targeted small molecules. Complex spheroids include a stromal component modeled by human endothelial cells (HUVEC) and fibroblasts modeled by human mesenchymal stem cells (MSCs). The concentration ranges selected for each drug and investigational agent were based upon clinically achievable concentrations if the clinical Cmax of the agent was known.
# Compounds. The drugs and investigational agents: abemaciclib (NSC768073), cobimetinib (NSC768068), divarasib (GDC6063, NSC841802), docetaxel (NSC628503), GDC-1971 (RLY-1971, NSC841576), gemcitabine (NSC613327), inavolisib (NSC800729), ipatasertib (NSC767898), KB-0742 (NSC834161), MRTX-1133 (NSC836407), osimertinib (NSC779217), RMC-4630 (NSC839698), RMC-6236 (NSC851965), RMC-6291 (NSC852671), Ro-3306 (NSC812927), sapanisertib (NSC764658), SN-38 (NSC673596), staurosporine (NSC755774), SY5609 (NSC837396), and tovorafenib (DAY101, NSC766906), were obtained from the National Cancer Institute (NCI) Developmental Therapeutics Program Chemical Repository. The FDA-approved anticancer drug set is available from the NCI Developmental Therapeutics Program. […] The stock solutions were prepared in dimethyl sulfoxide (DMSO, Sigma-Aldrich, St. Louis, MO, cat. D2650) at 800-fold the tested concentration and stored at -70 degrees C prior to their use. All drugs and investigational agents were tested over a range starting from a high concentration at or near the clinical Cmax and decreasing in half-log increments. If the clinical Cmax for an agent had not been determined, the highest concentration tested was 10 microM.
# Cell Culture. All cells were maintained in an incubator at 37 degrees C and 5% CO2 with 95% humidity. The PDC lines were cultured according to standard operating procedures established by the NCI PDMR. All PDCs were thawed and cultured in Matrigel-coated flasks prepared with a working solution of 1X Ham's F-12 nutrient mix, without supplementation (Invitrogen, Waltham, MA, cat. 11765054), 100 U/mL penicillin-streptomycin (Invitrogen, cat. 15140122), and 2.5% Matrigel (Corning Inc., Corning, NY, cat. 354248) for the first three passages. The 362531-283-R-J2-PDC and 782815-120-R-J1-PDC lines were cultured in 6C/Colon 1B media, which includes advanced DMEM/F-12 (Thermo Fisher Scientific, cat. 12634028), 10 mM HEPES (Thermo Fisher Scientific, cat. 15630080), 1X GlutaMAX supplement (Thermo Fisher Scientific, cat. 35050061), 0.1 mg/mL primocin (InvivoGen, San Diego, CA, cat. ant-pm-2), 10% defined fetal bovine serum, heat inactivated (HyClone Laboratories Inc., Logan, UT, cat. SH30070.03HI), 50% L-WRN conditioned media (ATCC, cat. CRL-3276), 1.25 mM N-Acetyl-L-cysteine (Sigma-Aldrich, cat. A9165), 10 mM nicotinamide (Sigma-Aldrich, cat. N0636), 1X B-27 supplement (Thermo Fisher Scientific, cat. 17504044), 1X N-2 supplement (Thermo Fisher Scientific, cat. 17502048), 50 ng/mL human EGF (Thermo Fisher Scientific, cat. PHG0311), and 10 microM Y-27632 dihydrochloride (Tocris Bioscience, cat. 1254). The K12877-001-R-J1-PDC line was cultured in 6I media, which includes all 6C/Colon 1B media plus 10 ng/mL human FGF-10 (PeproTech, cat. 100-26), 1 ng/mL human FGF-2 (PeproTech, cat. 100-18B), 1 µM prostaglandin E2 (Tocris Bioscience, cat. 2296), […] hydrocortisone (Sigma-Aldrich, cat. H4001), and […] bovine insulin (Sigma-Aldrich, cat. I6634). The K86415-001-R-J1-PDC line was cultured in 6D media, which includes all 6C/Colon 1B media components minus the L-WRN conditioned media. The 485176-168-R4-J1-PDC was cultured in PANC media, which includes all 6C/Colon 1B media plus 100 ng/mL human FGF-10 (PeproTech, cat. 100-26), 500 nM SB-431542 (Selleckchem, cat. S1067), and 10 nM gastrin (Tocris Bioscience, cat. 3006). […]
# [1] = second compound 0.0316 µM, first compound 0.0316 µM
# [2] = second compound 0.0316 µM, first compound 0.1 µM
# [3] = second compound 0.0316 µM, first compound 0.316 µM
# [4] = second compound 0.0316 µM, first compound 1 µM
# [5] = second compound 0.1 µM, first compound 0.0316 µM
# [6] = second compound 0.1 µM, first compound 0.1 µM
# [7] = second compound 0.1 µM, first compound 0.316 µM
# [8] = second compound 0.1 µM, first compound 1 µM
# [9] = second compound 0.316 µM, first compound 0.0316 µM
# [10] = second compound 0.316 µM, first compound 0.1 µM
# [11] = second compound 0.316 µM, first compound 0.316 µM
# [12] = second compound 0.316 µM, first compound 1 µM
# [13] = second compound 1 µM, first compound 0.0316 µM
# [14] = second compound 1 µM, first compound 0.1 µM
# [15] = second compound 1 µM, first compound 0.316 µM
# [16] = second compound 1 µM, first compound 1 µM
# [17] = second compound 3.16 µM, first compound 0.0316 µM
# [18] = second compound 3.16 µM, first compound 0.1 µM
# [19] = second compound 3.16 µM, first compound 0.316 µM
# [20] = second compound 3.16 µM, first compound 1 µM
# [21] = second compound 10 µM, first compound 0.0316 µM
# [22] = second compound 10 µM, first compound 0.1 µM
# [23] = second compound 10 µM, first compound 0.316 µM
# [24] = second compound 10 µM, first compound 1 µM
# 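Throughout, for viability, T/C: 100% = DMSO vehicle control viability.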
smiles,measurement,setting,value
CC1(O)CCCC1n1c(=O)c(C(F)F)cc2cnc(NC3CCN(S(C)(=O)=O)CC3)nc21 (centres undefined) + C#Cc1c(F)ccc2cc(O)cc(-c3ncc4c(N5CC6CCC(C5)N6)nc(OCC56CCCN5CC(F)C6)nc4c3F)c12,IC50,second compound 0.0316 µM,7570 nM
same,IC50,second compound 0.1 µM,8440 nM
same,IC50,second compound 0.316 µM,> 10000 nM
same,IC50,second compound 1 µM,< 31.6 nM
same,IC50,second compound 3.16 µM,< 31.6 nM
same,IC50,second compound 10 µM,< 31.6 nM
same,"viability, T/C",[1],73.3%
same,"viability, T/C",[2],79.7%
same,"viability, T/C",[3],87.4%
same,"viability, T/C",[4],75.5%
same,"viability, T/C","second compound 0.0316 µM, first compound 3.16 µM",69.4%
same,"viability, T/C","second compound 0.0316 µM, first compound 10 µM",43.5%
same,"viability, T/C",[5],85%
same,"viability, T/C",[6],69.9%
same,"viability, T/C",[7],72.5%
same,"viability, T/C",[8],78.8%
same,"viability, T/C","second compound 0.1 µM, first compound 3.16 µM",73%
same,"viability, T/C","second compound 0.1 µM, first compound 10 µM",46%
same,"viability, T/C",[9],67.3%
same,"viability, T/C",[10],67.5%
same,"viability, T/C",[11],64.5%
same,"viability, T/C",[12],62.5%
same,"viability, T/C","second compound 0.316 µM, first compound 3.16 µM",72.6%
same,"viability, T/C","second compound 0.316 µM, first compound 10 µM",41.6%
same,"viability, T/C",[13],55.4%
same,"viability, T/C",[14],43.7%
same,"viability, T/C",[15],42.2%
same,"viability, T/C",[16],60.8%
same,"viability, T/C","second compound 1 µM, first compound 3.16 µM",70.4%
same,"viability, T/C","second compound 1 µM, first compound 10 µM",43.3%
same,"viability, T/C",[17],29.6%
same,"viability, T/C",[18],27.6%
same,"viability, T/C",[19],31.6%
same,"viability, T/C",[20],31.9%
same,"viability, T/C","second compound 3.16 µM, first compound 3.16 µM",42.2%
same,"viability, T/C","second compound 3.16 µM, first compound 10 µM",32.3%
same,"viability, T/C",[21],21%
same,"viability, T/C",[22],21.5%
same,"viability, T/C",[23],25%
same,"viability, T/C",[24],29.3%
same,"viability, T/C","second compound 10 µM, first compound 3.16 µM",42.1%
same,"viability, T/C","second compound 10 µM, first compound 10 µM",36.5%
CCN1CCN(Cc2ccc(Nc3ncc(F)c(-c4cc(F)c5nc(C)n(C(C)C)c5c4)n3)nc2)CC1 + C#Cc1c(F)ccc2cc(O)cc(-c3ncc4c(N5CC6CCC(C5)N6)nc(OCC56CCCN5CC(F)C6)nc4c3F)c12,IC50,second compound 0.0316 µM,> 1000 nM
same,IC50,second compound 0.1 µM,> 1000 nM
same,IC50,second compound 0.316 µM,> 1000 nM
same,IC50,second compound 1 µM,< 3.16 nM
same,IC50,second compound 3.16 µM,< 3.16 nM
same,IC50,second compound 10 µM,< 3.16 nM
same,"viability, T/C","second compound 0.0316 µM, first compound 0.00316 µM",79%
same,"viability, T/C","second compound 0.0316 µM, first compound 0.01 µM",103%
same,"viability, T/C",[1],88%
same,"viability, T/C",[2],59.5%
same,"viability, T/C",[3],69.3%
same,"viability, T/C",[4],69.7%
same,"viability, T/C","second compound 0.1 µM, first compound 0.00316 µM",87.2%
same,"viability, T/C","second compound 0.1 µM, first compound 0.01 µM",86.3%
same,"viability, T/C",[5],65.3%
same,"viability, T/C",[6],62.4%
same,"viability, T/C",[7],59%
same,"viability, T/C",[8],77.4%
same,"viability, T/C","second compound 0.316 µM, first compound 0.00316 µM",73.3%
same,"viability, T/C","second compound 0.316 µM, first compound 0.01 µM",66.4%
same,"viability, T/C",[9],63.3%
same,"viability, T/C",[10],55%
same,"viability, T/C",[11],48.5%
same,"viability, T/C",[12],73.1%
same,"viability, T/C","second compound 1 µM, first compound 0.00316 µM",48.3%
same,"viability, T/C","second compound 1 µM, first compound 0.01 µM",51.5%
same,"viability, T/C",[13],43%
same,"viability, T/C",[14],33.5%
same,"viability, T/C",[15],35.4%
same,"viability, T/C",[16],55.8%
same,"viability, T/C","second compound 3.16 µM, first compound 0.00316 µM",28.2%
same,"viability, T/C","second compound 3.16 µM, first compound 0.01 µM",32%
same,"viability, T/C",[17],27.7%
same,"viability, T/C",[18],28%
same,"viability, T/C",[19],35.2%
same,"viability, T/C",[20],42.1%
same,"viability, T/C","second compound 10 µM, first compound 0.00316 µM",23.2%
same,"viability, T/C","second compound 10 µM, first compound 0.01 µM",22.8%
same,"viability, T/C",[21],21.9%
same,"viability, T/C",[22],19.4%
same,"viability, T/C",[23],25.7%
same,"viability, T/C",[24],35.2%
